In PubChem BioAssay AID312 (DTP/NCI, 2004):
Several values for one entry are separate records, joined by “and”; a condition that tells them apart may be missing. Identical values can stand only once. Inconclusive results and toxic doses are left out.

Test system: BDF1 mice, C1498 leukemia ip, median survival T/C
Test: NCI In Vivo Anticancer Drug Screen. Data for tumor model C1498 Myeloid Leukemia (intraperitoneal) in B6D2F1 (BDF1) mice
Conditions: endpoint: median survival time, higher = longer survival
Procedure: The antitumor activity of compounds was measured in mice bearing transplantable tumors. Survival or tumor size were measured and the results are expressed as the measurement made in the treated group (T) divided by the measurement made in the vehicle treated control group (C). The tumor model used in this assay is C1498 Myeloid Leukemia (intraperitoneal) in B6D2F1 (BDF1) mice

[1] = dose: 1.25 mg/kg/injection, schedule: Q01DX010 (ip), vehicle: saline
[2] = dose: 2.5 mg/kg/injection, schedule: Q01DX010 (ip), vehicle: saline
[3] = dose: 5.0 mg/kg/injection, schedule: Q01DX010 (ip), vehicle: saline
[4] = dose: 10.0 mg/kg/injection, schedule: Q01DX010 (ip), vehicle: saline
[5] = dose: 2.0 mg/kg/injection, schedule: Q01DX010 (ip), vehicle: saline
[6] = dose: 6.25 mg/kg/injection, schedule: Q01DX010 (ip), vehicle: saline
[7] = dose: 12.5 mg/kg/injection, schedule: Q01DX010 (ip), vehicle: saline
[8] = dose: 25.0 mg/kg/injection, schedule: Q01DX010 (ip), vehicle: saline
[9] = dose: 6.0 mg/kg/injection, schedule: Q01DX010 (ip), vehicle: saline
[10] = dose: 8.0 mg/kg/injection, schedule: Q01DX010 (ip), vehicle: saline
[11] = dose: 37.5 mg/kg/injection, schedule: Q01DX010 (ip), vehicle: saline
[12] = dose: 75.0 mg/kg/injection, schedule: Q01DX010 (ip), vehicle: saline
[13] = dose: 16.0 mg/kg/injection, schedule: Q01DX010 (ip), vehicle: saline

What does the source list for `N#[N+]c1cnc([O-])[nH]c1=O`?
T/C [1]: 100 % of control; T/C [2]: 122 % of control; T/C [3]: 113 % of control; T/C [4]: 118 % of control

What does the source list for `NC(Cc1ccc(N(CCCl)CCCl)cc1)C(=O)O` (stereo not given)?
T/C [3]: 173 % of control; T/C [4]: 88 % of control

Which results are given for `Nc1nc(F)nc2c1ncn2C1OC(CO)C(O)C1O` (stereo not given)?
T/C (dose: 0.5 mg/kg/injection, schedule: Q01DX010 (ip), vehicle: saline): 100 % of control; T/C (dose: 1.0 mg/kg/injection, schedule: Q01DX010 (ip), vehicle: saline): 100 % of control and 105 % of control and 108 % of control; T/C [5]: 100 % of control and 105 % of control and 108 % of control; T/C (dose: 4.0 mg/kg/injection, schedule: Q01DX010 (ip), vehicle: saline): 100 % of control and 108 % of control and 110 % of control

How did the T/C [6] turn out when `CS(=O)(=O)OCCC(=O)N1CCN(C(=O)CCOS(C)(=O)=O)CC1` was run?
The T/C was 100 % of control and 105 % of control.

And the T/C [7]?
The T/C was 100 % of control and 110 % of control and 118 % of control.

And the T/C [8]?
Its T/C is 108 % of control and 109 % of control and 110 % of control.

What about the T/C (dose: 50.0 mg/kg/injection, schedule: Q01DX010 (ip), vehicle: saline) of the same compound?
The T/C was 104 % of control and 109 % of control.

And the T/C (dose: 100.0 mg/kg/injection, schedule: Q01DX010 (ip), vehicle: saline)?
The T/C was 109 % of control.

With `O=C(Nc1ccc(C2=NCCN2)cc1)c1ccc(C(=O)Nc2ccc(C3=NCCN3)cc2)c([N+](=O)[O-])c1` as the compound, how does the T/C [9] read?
Its T/C is 96 % of control and 119 % of control.

And the T/C [10]?
The T/C was 100 % of control.

And the T/C (dose: 18.0 mg/kg/injection, schedule: Q01DX010 (ip), vehicle: saline)?
The T/C was 103 % of control.

For `O=[n+]1c2c(n([O-])c3ccccc31)-c1cccc3cccc-2c13`, which T/C (dose: 3.13 mg/kg/injection, schedule: Q01DX010 (ip), vehicle: saline) is on record?
Its T/C is 90 % of control.

What about the T/C [6] of the same compound?
The T/C was 90 % of control.

And the T/C [7]?
Its T/C is 90 % of control.

What about the T/C [8] of the same compound?
Its T/C is 90 % of control.

`CS(=O)(=O)OCCCl` was tested. Which T/C (dose: 18.8 mg/kg/injection, schedule: Q01DX010 (ip), vehicle: saline) did it give?
Its T/C is 90 % of control.

What about the T/C [11] of the same compound?
Its T/C is 104 % of control.

And the T/C [12]?
The T/C was 90 % of control.

`C[C@]12C=CC(=O)C=C1CC[C@@H]1[C@@H]2[C@@H](O)C[C@@]2(C)[C@H]1CC[C@]2(O)C(=O)CO` was tested. Which T/C (dose: 12.5 mg/kg/injection, schedule: Q01DX010 (sc), vehicle: steriod suspending solution) did it give?
Its T/C is 92 % of control.

What about the T/C (dose: 25.0 mg/kg/injection, schedule: Q01DX010 (sc), vehicle: steriod suspending solution) of the same compound?
Its T/C is 88 % of control.

And the T/C (dose: 50.0 mg/kg/injection, schedule: Q01DX010 (sc), vehicle: steriod suspending solution)?
Its T/C is 92 % of control.

And the T/C (dose: 100.0 mg/kg/injection, schedule: Q01DX010 (sc), vehicle: steriod suspending solution)?
Its T/C is 92 % of control.

For `COC(=O)C[C@](O)(CCCC(C)(C)O)C(=O)O[C@@H]1C(OC)=C[C@]23CCCN2CCc2cc4c(cc2[C@H]13)OCO4`, which T/C (dose: 1.5 mg/kg/injection, schedule: Q01DX009 (ip), vehicle: acid diluted with saline) is on record?
The T/C was 96 % of control.

And the T/C (dose: 2.0 mg/kg/injection, schedule: Q01DX009 (ip), vehicle: acid diluted with saline)?
The T/C was 91 % of control.

Which T/C (dose: 1.5 mg/kg/injection, schedule: Q01DX010 (ip), vehicle: saline) does the source give for `N=C(N)c1ccc(Nc2ccc(C(=N)N)cc2)cc1` here?
The T/C was 100 % of control.

And the T/C (dose: 3.0 mg/kg/injection, schedule: Q01DX010 (ip), vehicle: saline)?
Its T/C is 90 % of control.

What about the T/C [9] of the same compound?
The T/C was 86 % of control.

And the T/C (dose: 12.0 mg/kg/injection, schedule: Q01DX010 (ip), vehicle: saline)?
Its T/C is 86 % of control.

Which T/C [10] does the source give for `O=C(Nc1ccc(C2=NCCN2)cc1)c1cccc(C(=O)Nc2ccc(C3=NCCN3)cc2)c1` here?
The T/C was 92 % of control and 96 % of control.

What about the T/C [13] of the same compound?
Its T/C is 96 % of control and 103 % of control.

And the T/C (dose: 32.0 mg/kg/injection, schedule: Q01DX010 (ip), vehicle: saline)?
Its T/C is 115 % of control and 117 % of control.

With `CO[C@@H]1[C@@H](OC2OC(C)C(OC3CC(C)(O)C(OC(=O)CC(C)C)C(C)O3)C(N(C)C)C2O)[C@@H](CC=O)C[C@@H](C)C(=O)/C=C/C2O[C@H]2C[C@@H](C)OC(=O)C[C@H]1OC(C)=O` (stereo not given in full) as the compound, how does the T/C [11] read?
Its T/C is 109 % of control and 91 % of control.

And the T/C [12]?
The T/C was 100 % of control and 91 % of control.

And the T/C (dose: 150.0 mg/kg/injection, schedule: Q01DX010 (ip), vehicle: saline)?
Its T/C is 95 % of control and 90 % of control.

What about the T/C (dose: 300.0 mg/kg/injection, schedule: Q01DX010 (ip), vehicle: saline) of the same compound?
The T/C was 91 % of control and 90 % of control.

`CS(=O)(=O)OCCN(CCOS(C)(=O)=O)c1ccc(N=O)cc1` was tested. Which T/C (dose: 0.25 mg/kg/injection, schedule: Q01DX010 (ip), vehicle: saline) did it give?
The T/C was 122 % of control.

Which results are given for `O=C(Nc1ccc(NC2=NCCN2)cc1)c1ccc(C(=O)Nc2ccc(NC3=NCCN3)cc2)cc1`?
T/C [5]: 113 % of control and 123 % of control; T/C [10]: 172 % of control and 190 % of control; T/C [13]: 109 % of control and 114 % of control

How did the T/C [1] turn out when `O=C(O)c1[nH]c(=O)[nH]c(=O)c1F` was run?
Its T/C is 116 % of control and 118 % of control.

And the T/C [2]?
Its T/C is 122 % of control.

And the T/C [3]?
The T/C was 158 % of control and 163 % of control.

And the T/C [4]?
Its T/C is 95 % of control and 109 % of control.
